In US20230248647A1, “SILICA HYDROGEL COMPOSITE AND ITS USE” (DelSiTech Oy, priority 2020, published 2023):
Counter-ions that a name gives are not always drawn. Values belong to the compound of their own block, whether it stands above or below them.

Key:
Solubility in water = assay type: physicochemical; settings: corresponds to 0.019 mg/ml
[1] = In vivo pharmacokinetic experiment, oral and subcutaneous administration; parameters: species or system male SD (Sprague Dawley) rats; settings: for AUC(0-t) / Cmax / Tmax / half-life: male, Sprague-Dawley, rat, plasma
Method: Silica hydrogel composite #29HG was used as a depot for male SD (Sprague Dawley) rats (5 animals/dosing group) in subcutaneous (SC+a letter A-E referring to different groups) administration of Anagrelide, and for oral administration (PO). The oral dose was prepared by adding 18.00 mg of Anagrelide hydrochloride into […] of 10 w-% ethanol with vortexing and sonication to obtain a suspension with concentration of 0.5 mg/ml of Anagrelide hydrochloride. The oral dose (5 mg/kg) was provided only in 12 h study, and it was freshly made just prior to dosing. Both 12 hour and 10 d pharmacokinetic experiments were conducted for the silica hydrogel composite for 2 different anagrelide hydrochloride doses (17.5 mg/kg and 35 mg/kg), and 28 d experiment only for the dose of 35 mg/kg.
The bioanalysis was conducted by using LC-MS/MS. The desired serial concentrations of working solutions were achieved by diluting stock solution of analyte with 50% acetonitrile in water solution. 5 μL of working solutions (2, 5, 10, 20, 50, 100, 500, 1000, 5000, 10000 ng/mL) were added to 50 μL of the male blank SD Rat plasma to achieve calibration standards of 0.2-1000 ng/mL (0.2, 0.5, 1, 2, 5, 10, 50, 100, 500, 1000 ng/mL) in a total volume of 55 μL. Four quality control samples at 0.5 ng/mL, 1 ng/mL, 50 ng/mL and 800 ng/mL for plasma were prepared independently of those used for the calibration curves. These QC samples were prepared on the day of analysis in the same way as calibration standards. 55 μL of standards, 55 μL of QC samples and 55 μL of unknown samples (50 μL of plasma with 5 μL of blank solution) were added to 200 μL of acetonitrile containing IS mixture for precipitating protein respectively. Then the samples were vortexed for 30 s. After centrifugation at 4 degree Celsius, 4700 rpm for 15 min, the supernatant was diluted 3 times with water, and 10 μL of diluted supernatant was injected into the LC-MS/MS system for quantitative analysis. The mean plasma concentrations of Anagrelide Hydrochloride for 12 h experiment are shown in FIG. 4, and corresponding results for 10 d experiment in FIG. 5, and for 28 d experiment in FIG. 6.

[2] = Particle size distribution analysis by laser diffraction (Sympatec HELOS H3973); assay type: physicochemical; settings: micronized particles
Method: For particle size distribution analysis, the non-active silica particles (which were used in silica hydrogel composite #29HG) were dispersed in ethanol, and the analysis was conducted using a Sympatec HELOS H3973 laser diffraction instrument. The particle size distribution for non-active silica particles is shown in Table 2 (D10, D50 and D90 means that 10%, 50%, and 90% of the particles are equal or smaller than the indicated size)
The particles size distribution analysis for micronized (described in Example 1) Anagrelide HCl particles was also conducted using a Sympatec HELOS H3973 laser diffraction instrument. The particle size was mainly between 1 and 200 micrometers, where D10 was 16.6 micrometers, D50 80.4 micrometers, and D90 155 micrometers.

[3] = cited from earlier work
[4] = po, 5 mg/kg, oral suspension 5 mg/kg, 12 h experiment
[5] = sc, 17.5 mg/kg, SCA, subcutaneous silica hydrogel composite #29HG depot 17.5 mg/kg, 12 h experiment
[6] = sc, 17.5 mg/kg, SCB, subcutaneous silica hydrogel composite #29HG depot 17.5 mg/kg, 10 d experiment
[7] = sc, 35 mg/kg, SCC, subcutaneous silica hydrogel composite #29HG depot 35 mg/kg, 12 h experiment
[8] = sc, 35 mg/kg, SCD, subcutaneous silica hydrogel composite #29HG depot 35 mg/kg, 10 d experiment
[9] = sc, 35 mg/kg, SCE, subcutaneous silica hydrogel composite #29HG depot 35 mg/kg, 28 d experiment

solubility in water as weight-% (Solubility in water): 0.0019 weight-% | AUClast/D ([1]; PO, oral suspension 5 mg/kg, 12 h experiment): 64 ± 47 ng·h/mL per mg/kg | AUClast/D ([1]; SCA, subcutaneous silica hydrogel composite #29HG depot 17.5 mg/kg, 12 h experiment): 1.67 ± 0.4 ng·h/mL per mg/kg | AUClast/D ([1]; SCB, subcutaneous silica hydrogel composite #29HG depot 17.5 mg/kg, 10 d experiment): 29.8 ± 12.5 ng·h/mL per mg/kg | AUClast/D ([1]; SCC, subcutaneous silica hydrogel composite #29HG depot 35 mg/kg, 12 h experiment): 0.99 ± 0.3 ng·h/mL per mg/kg | AUClast/D ([1]; SCD, subcutaneous silica hydrogel composite #29HG depot 35 mg/kg, 10 d experiment): 21.4 ± 9.1 ng·h/mL per mg/kg | AUC(0-t) [1, 4]: 320 ± 235 ng·h/mL | Cmax [1, 4]: 62 ± 47 ng/mL | Tmax [1, 4]: 3 ± 2 h | half-life [1, 4]: 1.3 ± 0.27 h | AUC(0-t) [1, 5]: 29.2 ± 7.1 ng·h/mL | Cmax [1, 5]: 4.55 ± 1.41 ng/mL | Tmax [1, 5]: 1.1 ± 0.55 h | half-life [1, 5]: 4.92 ± 0.85 h | AUC(0-t) [1, 6]: 521 ± 218 ng·h/mL | Cmax [1, 6]: 3.58 ± 1.51 ng/mL | Tmax [1, 6]: 96 ± 102 h | AUC(0-t) [1, 7]: 34.5 ± 10.6 ng·h/mL | Cmax [1, 7]: 6.3 ± 4.2 ng/mL | Tmax [1, 7]: 0.8 ± 0.27 h | half-life [1, 7]: 7.03 ± 1.04 h | AUC(0-t) [1, 8]: 749 ± 320 ng·h/mL | Cmax [1, 8]: 5.29 ± 2.28 ng/mL | Tmax [1, 8]: 154 ± 79 h | AUC(0-t) [1, 9]: 1600 ng·h/mL | Tmax [1, 9]: 188 h | half-life [1, 9]: 167 h | D10 [2]: 16.6 micrometers | D50 [2]: 80.4 micrometers | D90 [2]: 155 micrometers
Compound: O=C1CN2Cc3c(ccc(Cl)c3Cl)N=C2N1 [Anagrelide HCl, Anagrelide hydrochloride]
clinical symptoms ([1]; SD rats, entire experiment (PO 5 mg/kg; SC #29HG depot 17.5 and 35 mg/kg)): No abnormal clinical symptoms were observed | release behaviour from plasma concentration results ([1]; delivered as solid particles in silica hydrogel composite, SC, SD rats): sustained and controlled release is achieved | solubility in water [3]: 19 µg/mL

Compound: O=C1CN2Cc3c(ccc(Cl)c3Cl)N=C2N1 [Anagrelide]
solubility of base form compared with Anagrelide HCl ([3]; water): even lower solubility than Anagrelide HCl
